Data published in US20210290648A1, “Potentiation of B-Lactam Antibiotics and B-Lactam/B-Lactamase Inhibitor Combinations Against Multidrug and Extensively Drug-Resistant Pseudomonas Aeruginosa Using Non-Ribosomal Tobramycin-Cyclam Conjugates” (University of Manitoba, priority 2018, published 2021).

Assays:
[1] = tested on: Galleria mellonella larvae; test: Galleria mellonella tolerability study
Procedure: In vitro and in vivo discordances have been observed in antimicrobial chemotherapy, thus, therapeutic efficacy may not necessarily be reliably extrapolated based on in vitro data alone. […] Colistin (100 mg/kg), an antibiotic well known for its toxicity towards eukaryotes, served as a positive control for this experiment while PBS served as negative control. […] Survivability was scored for a total of 4 days.
In vivo larvae-infection model. In vivo synergistic effects were determined using Galleria mellonella infection model, as previously described (20). Briefly, worms were purchased from The Worm Lady® Live Feeder (ON, Canada), stored in their natural habitat at 16° C., and used within 10 days of delivery. The worms (average weight of 250 mg) were used for tolerability and efficacy studies. Tolerability study was performed by injecting 10 μL of antimicrobial agents only at concentrations equivalent to 100 mg/kg or 200 mg/kg. The worms (ten in each group) were incubated at 37° C. and monitored for 96 h. […] Overnight grown culture of respective MDR P. aeruginosa isolate was standardized to 0.5 McFarland standard and diluted in PBS to a final concentration of […]. 10 μL of this solution (5 CFU) was injected into each worm and incubated for 3 h at 37° C. […] Worms treated with 10 μL PBS or high concentrations of test antibiotics served as negative and positive control, respectively. The worms were incubated at 37° C. in Petri dishes lined with filter paper and scored for survivability every 6 h for up to 48 h. This experiment was repeated to give a total of thirty worms (n=30) in each case. Survival data curves were plotted using Kaplan-Meier survival analysis.

PAO200 = format: cell-based, Pseudomonas aeruginosa
Text: (§1) PAO200 is a tnexA-rnexB-oprM deletion strain while PAO750 lacks five important RND pumps (McxAB-OprM, MexCD-OprJ, MexEF-OprN, Mex JK, and MexXY) and the outer membrane protein OpmH (46, 47). Some of these pumps are homologues of broad substrate specificities that extrude different classes of antimicrobial agents and confer resistance on P. aeruginosa (48).
(§2) Antimicrobial Susceptibility Assay. The in vitro antimicrobial activity of all compounds/antibiotics against a panel of bacteria was evaluated by microbroth dilution method in accordance with the Clinical and Laboratory Standards Institute (CLSI) guidelines. Overnight grown bacterial cultures were diluted in saline to achieve a 0.5 McFarland turbidity, followed by 1:50 dilution in Mueller-Hinton broth (MHB) for inoculation to a final concentration of approximately 5×10^5CFU/mL. The antimicrobial agents were 2-fold serially diluted in MHB in a 96-well plate and incubated at 37° C. with equal volumes of inoculum for 18 h. The lowest concentration that prevented the visible growth of bacteria was defined as the MIC for each antimicrobial agent. The broth with or without bacterial cells was used as positive or negative control, respectively.
(§3) Checkerboard Assay. Combination studies with different antibiotics were performed in 96-well plates as previously described (22). Briefly, the antibiotic of interest was serially diluted in MHB along the abscissa while the adjuvant (newly synthesized conjugates) was serially diluted in MHB along the ordinate. This creates a 10×7 matrix wherein each well consists of a combination of different antibiotic and adjuvant concentrations. Overnight grown bacterial cultures were diluted in saline to achieve a 0.5 McFarland turbidity, followed by 1:50 dilution in Mueller-Hinton broth (MHB) for inoculation to a final concentration of approximately 5×10^5CFU/mL. Equal volume of this bacterial culture was then added to each well and incubated at 37° C. for 18 h. After incubation, the plates were read on EMax® Plus microplate reader (Molecular Devices, Sunnyvale, Calif., USA) at 590 nm. MIC was recorded as wells with the lowest concentration of drugs with no bacterial growth. The fractional inhibitory concentration (FIC) for each antibiotic was calculated by dividing the MIC of the antibiotic in the presence of adjuvant by the MIC of the antibiotic alone. Similarly, the FIC of adjuvant was calculated by dividing the MIC of the adjuvant in the presence of antibiotic by the MIC of the adjuvant alone. FIC index is the sum of both FICs. FIC indices of <0.5 were deemed synergistic; 0.5-4, no interaction; and >4, antagonistic.

PAO750 = format: cell-based, Pseudomonas aeruginosa
Text: as §1, §2, §3

PA 262 = test: Checkerboard combination study / MIC; format: cell-based, Pseudomonas aeruginosa
PA 100036 = test: Checkerboard combination study / MIC; format: cell-based, Pseudomonas aeruginosa
PA 91433 = test: Checkerboard combination study / MIC; format: cell-based, Pseudomonas aeruginosa; conditions: PA 91433
PA 101243 = test: Checkerboard combination study / MIC; format: cell-based, Pseudomonas aeruginosa; conditions: PA 101243
PA 264 = test: Checkerboard combination study / MIC; format: cell-based, Pseudomonas aeruginosa
[2] = tested on: MDR PA101885-challenged larvae; test: Galleria mellonella infection model, efficacy; format: in vivo; conditions: after 24 h
Procedure: In vivo synergistic effects were determined using Galleria mellonella infection model, as previously described (20). Briefly, worms were purchased from The Worm Lady® Live Feeder (ON, Canada), stored in their natural habitat at 16° C., and used within 10 days of delivery. The worms (average weight of 250 mg) were used for tolerability and efficacy studies. Tolerability study was performed by injecting 10 μL of antimicrobial agents only at concentrations equivalent to 100 mg/kg or 200 mg/kg. The worms (ten in each group) were incubated at 37° C. and monitored for 96 h. For efficacy studies, the virulence and bacterial load required to kill 100% of the worms within 12-18 h (with no treatment) was first determined, which is approximately 5 CFU. Overnight grown culture of respective MDR P. aeruginosa isolate was standardized to 0.5 McFarland standard and diluted in PBS to a final concentration of 5×10^2CFU/mL. 10 μL of this solution (5 CFU) was injected into each worm and incubated for 3 h at 37° C. […] Worms treated with 10 μL PBS or high concentrations of test antibiotics served as negative and positive control, respectively. The worms were incubated at 37° C. in Petri dishes lined with filter paper and scored for survivability every 6 h for up to 48 h. This experiment was repeated to give a total of thirty worms (n=30) in each case. Survival data curves were plotted using Kaplan-Meier survival analysis.

PA 260 = test: Checkerboard combination study / MIC; format: cell-based, Pseudomonas aeruginosa
[3] = MIC of antibiotic combined with compound 2

C[C@@H](O)[C@H]1C(=O)N2C(C(=O)O)=C(S[C@@H]3CN[C@H](C(=O)N(C)C)C3)[C@H](C)[C@H]12 [Meropenem] was tested, and the survival of larvae ([1]; 100 mg/kg and 200 mg/kg injected alone, after 48 h) was 100%, the “dose tolerated by larvae” value ([1]; Galleria mellonella, in vivo, 96 h) was “up to 200 mg/kg” and the “MIC of antibiotic + Compound 2 in PAO200” value (PAO200; + compound 2 ≤8.7 μM, PAO200) was 0.063 µg/mL. The “fold change of MIC + Compound 2 in PAO200” value (PAO200; + compound 2 ≤8.7 μM, PAO200) was 4, the “MIC of antibiotic alone in PAO200” value (PAO200; antibiotic alone, PAO200 efflux-deficient) was 0.25 µg/mL and the “MIC of antibiotic + Compound 2 in PAO750” value (PAO750; + compound 2 ≤8.7 μM, PAO750) was 0.25 µg/mL. The “fold change of MIC + Compound 2 in PAO750” value (PAO750; + compound 2 ≤8.7 μM, PAO750) was 4, the “MIC of antibiotic alone in PAO750” value (PAO750; antibiotic alone, PAO750 efflux-deficient) was 1 µg/mL and the “MICCombination (antibiotic)” value (PA 262; [3]) was 2 µg/mL. The FICI (PA 262; antibiotic + compound 2) was less than 0.13, the MICAntibiotic (PA 262; antibiotic alone) was 32 µg/mL and the FICAntibiotic (PA 262; with compound 2) was 0.063. For the same molecule, the “MICCombination (antibiotic)” value (PA 100036; [3]) was 2 µg/mL, the FICI (PA 100036; antibiotic + compound 2) was less than 0.51 and the MICAntibiotic (PA 100036; antibiotic alone) was 4 µg/mL. For the same molecule, the FICAntibiotic (PA 100036; with compound 2) was 0.500, the “MICCombination (antibiotic)” value (PA 91433; [3]) was 0.25 µg/mL and the FICI (PA 91433; antibiotic + compound 2) was less than 0.03. The MICAntibiotic (PA 91433; antibiotic alone) was 16 µg/mL, the FICAntibiotic (PA 91433; with compound 2) was 0.016 and the “MICCombination (antibiotic)” value (PA 101243; [3]) was 2 µg/mL. The FICI (PA 101243; antibiotic + compound 2) was less than 0.25, the MICAntibiotic (PA 101243; antibiotic alone) was 8 µg/mL and the FICAntibiotic (PA 101243; with compound 2) was 0.250. For the same molecule, the “MICCombination (antibiotic)” value (PA 264; [3]) was 2 µg/mL, the FICI (PA 264; antibiotic + compound 2) was less than 0.05 and the MICAntibiotic (PA 264; antibiotic alone) was 64 µg/mL. For the same molecule, the FICAntibiotic (PA 264; with compound 2) was 0.0313, the “mortality of larvae, monotherapy” value ([2]; aztreonam […], meropenem 37.5 mg/kg, compound 2 100 mg/kg) was 100% and the survival of larvae ([2]; meropenem 37.5 mg/kg single dose) was 0%. The survival of larvae ([2]; meropenem 50 mg/kg single dose) was 80%, the “MICCombination (antibiotic)” value (PA 260; [3]) was 1 µg/mL and the FICI (PA 260; antibiotic + compound 2) was less than 0.16. For the same molecule, the MICAntibiotic (PA 260; antibiotic alone) was 8 µg/mL and the FICAntibiotic (PA 260; with compound 2) was 0.125.
